Results as given in ChEMBL document CHEMBL5325431, “Synthesis of thieno[3,2-e]pyrrolo[1,2-a]pyrimidine derivatives and their precursors containing 2-aminothiophenes fragments as anticancer agents for therapy of pulmonary metastatic melanoma” (Eur J Med Chem, 2023).

What was measured:
[1] = tested on: B16-F10; assay: Induction of apoptosis in mouse B16-F10 cells assessed as viable cells at 10 uM measured after 48 hrs by Annexin V-FITC/7-AAD staining based flow cytometric analysis relative to control; format: functional; details: read-out: Activity
[2] = tested on: B16-F10; assay: Cytotoxicity against mouse B16-F10 cells assessed as cell survival incubated for 24 hrs by alamarblue staining based analysis; format: functional; details: B16-F10, 24 h
[3] = tested on: B16-F10; assay: Antitumor activity against metastatic mouse B16-F10 cells implanted in C57BL/6 mouse assessed as number of lung metastases at 9 to 9.5 mg/kg, ip administered for 19 days by histological analysis (reference value: 190 +/- 9); format: functional; details: dose 9-9.5 mg/kg, time 19 day
[4] = tested on: B16-F10; assay: Induction of apoptosis in mouse B16-F10 cells assessed as viable cells at 20 uM measured after 48 hrs by Annexin V-FITC/7-AAD staining based flow cytometric analysis relative to control; format: functional; details: read-out: Activity
[5] = Toxicity in C57BL/6 mouse assessed as effect on AST level at 37 mg/kg, ip measured for 22 days; format: organism-based; details: in vivo, 528 h, time 22 day
[6] = tested on: B16-F10; assay: Antitumor activity against metastatic mouse B16-F10 cells implanted in C57BL/6 mouse assessed as number of lung metastases at 9 to 9.5 mg/kg, ip administered for 12 days by histological analysis (reference value: 150 +/- 7); format: functional; details: dose 9-9.5 mg/kg, time 12 day
[7] = Toxicity in C57BL/6 mouse implanted with mouse B16-F10 cells assessed as kidney damage at 9 to 9.5 mg/kg, ip by H and E staining based analysis; format: organism-based; details: in vivo, dose 9-9.5 mg/kg
[8] = tested on: B16-F10; assay: Induction of apoptosis in mouse B16-F10 cells assessed as early apoptotic cells at 20 uM measured after 48 hrs by Annexin V-FITC/7-AAD staining based flow cytometric analysis relative to control; format: functional
[9] = tested on: B16-F10; assay: Induction of apoptosis in mouse B16-F10 cells assessed as early apoptotic cells at 15 uM measured after 48 hrs by Annexin V-FITC/7-AAD staining based flow cytometric analysis relative to control; format: functional
[10] = tested on: B16-F10; assay: Induction of apoptosis in mouse B16-F10 cells assessed as viable cells at 5 uM measured after 48 hrs by Annexin V-FITC/7-AAD staining based flow cytometric analysis relative to control; format: functional; details: read-out: Activity
[11] = tested on: B16-F10; assay: Induction of apoptosis in mouse B16-F10 cells assessed as necrotic cells at 5 uM measured after 48 hrs by Annexin V-FITC/7-AAD staining based flow cytometric analysis relative to control; format: functional
[12] = tested on: 4T1; assay: Cytotoxicity against mouse 4T1 cells assessed as cell survival incubated for 24 hrs by alamarblue staining based analysis; format: functional; details: 4T1, 24 h
[13] = Toxicity in C57BL/6 mouse implanted with mouse B16-F10 cells assessed as kidney damage at 4.6 to 42 mg/kg, ip by H and E staining based analysis; format: organism-based; details: in vivo, dose 4.6-42 mg/kg
[14] = Toxicity in C57BL/6 mouse implanted with mouse B16-F10 cells assessed as heart damage at 9 to 9.5 mg/kg, ip by H and E staining based analysis; format: organism-based; details: in vivo, dose 9-9.5 mg/kg
[15] = tested on: B16-F10; assay: Induction of apoptosis in mouse B16-F10 cells assessed as necrotic cells at 15 uM measured after 48 hrs by Annexin V-FITC/7-AAD staining based flow cytometric analysis relative to control; format: functional
[16] = tested on: B16-F10; assay: Induction of apoptosis in mouse B16-F10 cells assessed as late apoptotic cells at 10 uM measured after 48 hrs by Annexin V-FITC/7-AAD staining based flow cytometric analysis relative to control; format: functional
[17] = tested on: B16-F10; assay: Induction of apoptosis in mouse B16-F10 cells assessed as early apoptotic cells at 10 uM measured after 48 hrs by Annexin V-FITC/7-AAD staining based flow cytometric analysis relative to control; format: functional
[18] = Toxicity in C57BL/6 mouse assessed as effect on ALT level at 37 mg/kg, ip measured for 22 days; format: organism-based; details: in vivo, 528 h, time 22 day
[19] = Toxicity in C57BL/6 mouse assessed as change in body temperature at 37 mg/kg, ip measured for 22 days; format: organism-based; details: in vivo, 528 h, time 22 day
[20] = tested on: B16-F10; assay: Cytotoxicity against mouse B16-F10 cells assessed as inhibition of cell growth incubated for 24 hrs by alamarblue staining based assay; format: functional; details: dose 0.28-55 µM
[21] = Toxicity in C57BL/6 mouse assessed as effect on urea level at 37 mg/kg, ip measured for 22 days; format: organism-based; details: in vivo, 528 h, time 22 day
[22] = tested on: B16-F10; assay: Induction of apoptosis in mouse B16-F10 cells assessed as necrotic cells at 20 uM measured after 48 hrs by Annexin V-FITC/7-AAD staining based flow cytometric analysis relative to control; format: functional
[23] = tested on: B16-F10; assay: Antitumor activity against metastatic mouse B16-F10 cells implanted in C57BL/6 mouse assessed as number of lung metastases at 9 to 9.5 mg/kg, ip administered for 22 days by histological analysis (reference value: 223 +/- 12); format: functional; details: dose 9-9.5 mg/kg, time 22 day
[24] = tested on: B16-F10; assay: Antitumor activity against metastatic mouse B16-F10 cells implanted in C57BL/6 mouse assessed as number of lung metastases at 4.6 to 42 mg/kg, ip administered every 3rd day for 22 days measured on day 23 by histological analysis (reference value: 223 +/- 12); format: functional; details: dose 4.6-42 mg/kg, time 23 day
[25] = Cytotoxicity against NF2-deficient mouse MEF cells assessed as cell survival incubated for 24 hrs by alamarblue staining based analysis; format: toxicity
[26] = tested on: MEF; assay: Cytotoxicity against NF2-deficient mouse MEF cells assessed as reduction in cell viability at 0.2 to 55 uM incubated for 24 hrs by alamarblue staining based analysis; format: toxicity; details: dose 0.2-55 µM
[27] = Toxicity in C57BL/6 mouse implanted with mouse B16-F10 cells assessed as liver damage at 9 to 9.5 mg/kg, ip by H and E staining based analysis; format: organism-based; details: in vivo, dose 9-9.5 mg/kg
[28] = Toxicity in C57BL/6 mouse assessed as body weight gain at 37 mg/kg, ip measured for 22 days; format: organism-based; details: in vivo, 528 h, time 22 day
[29] = tested on: B16-F10; assay: Induction of apoptosis in mouse B16-F10 cells assessed as early apoptotic cells at 5 uM measured after 48 hrs by Annexin V-FITC/7-AAD staining based flow cytometric analysis relative to control; format: functional
[30] = Toxicity in C57BL/6 mouse implanted with mouse B16-F10 cells assessed as spleen damage at 4.6 to 42 mg/kg, ip by H and E staining based analysis; format: organism-based; details: in vivo, dose 4.6-42 mg/kg
[31] = tested on: B16-F10; assay: Antitumor activity against metastatic mouse B16-F10 cells implanted in C57BL/6 mouse assessed as number of lung metastases at 9 to 9.5 mg/kg, ip administered for 15 days by histological analysis (reference value: 175 +/- 10); format: functional; details: dose 9-9.5 mg/kg, time 15 day
[32] = tested on: B16-F10; assay: Induction of apoptosis in mouse B16-F10 cells assessed as late apoptotic cells at 5 uM measured after 48 hrs by Annexin V-FITC/7-AAD staining based flow cytometric analysis relative to control; format: functional
[33] = tested on: B16-F10; assay: Induction of apoptosis in mouse B16-F10 cells assessed as viable cells at 15 uM measured after 48 hrs by Annexin V-FITC/7-AAD staining based flow cytometric analysis relative to control; format: functional; details: read-out: Activity
[34] = Toxicity in C57BL/6 mouse implanted with mouse B16-F10 cells assessed as spleen damage at 9 to 9.5 mg/kg, ip by H and E staining based analysis; format: organism-based; details: in vivo, dose 9-9.5 mg/kg

Row | SMILES | viability at 10 µM [1] | IC50 [2] | Activity [3] | viability at 20 µM [4] | Activity [5] | Activity [6] | Activity [7] | Activity [8] | Activity [9] | viability at 5 µM [10] | Activity [11] | IC50 [12] | Activity [13] | Activity [14] | Activity [15] | Activity [16] | Activity [17] | Activity [18] | Activity [19] | Activity [20] | other results
1 | COc1ccc(C(=O)/C=C2\C(=O)C(C#N)=C3NC(=O)c4c(sc5c4CCCCC5)N32)cc1 | 0.3% | 6.2 µM | 87 | 0.2% | Non-Toxic | 143 | Non-Toxic | 0.3% | 0.8% | 63.2% | 3.2% | 8.8 µM | Non-Toxic | Non-Toxic | 7.2% | 88.6% | 0.5% | Non-Toxic | Non-Toxic | Dose-Dependent Effect | Activity [21]: Non-Toxic; Activity [22]: 7.4%; Activity [23]: 75; Activity [24]: 55; IC50 at 24 h [25]: > 100 µM; Activity [26]: Non-Toxic; Activity [27]: Non-Toxic; Activity [28]: Toxic; Activity [29]: 2.8%; Activity [30]: Non-Toxic; Activity [31]: 120; Activity [32]: 30.8%; viability at 15 µM [33]: 0.4%; Activity [34]: Non-Toxic
2 | CCOC(=O)c1c(NC(=C\C(=O)c2ccc(OC)cc2)/C([O-])=C(\C#N)C(N)=O)sc2c1CCCC2.[K+] | 0.5% | 2.41 µM | 54 | 0.3% | Non-Toxic | 161 | Non-Toxic | 0.8% | 0.5% | 5.8% | 48.5% | 3.8 µM | Non-Toxic | Non-Toxic | 4.9% | 85.3% | 0.3% | Non-Toxic | Non-Toxic | Dose-Dependent Effect | Activity [21]: Non-Toxic; Activity [22]: 3.8%; Activity [23]: 21; Activity [24]: ~10; IC50 at 24 h [25]: > 100 µM; Activity [26]: Non-Toxic; Activity [27]: Non-Toxic; Activity [28]: Toxic; Activity [29]: 2.2%; Activity [30]: Non-Toxic; Activity [31]: 94; Activity [32]: 43.5%; viability at 15 µM [33]: 0.3%; Activity [34]: Non-Toxic
3 | CCOC(=O)c1c(N2C(N)=C(C#N)C(=O)/C2=C\C(=O)c2ccc(C)cc2)sc2c1CCCCC2 | 1.1% | 4.8 µM | 67 | 0.2% | Non-Toxic | 145 | Non-Toxic | 1% | 0.5% | 35.4% | 32.8% | 6.5 µM | Non-Toxic | Non-Toxic | 3.3% | 75.6% | 1.5% | Non-Toxic | Non-Toxic | Dose-Dependent Effect | Activity [21]: Non-Toxic; Activity [22]: 2.3%; Activity [23]: 40; Activity [24]: 29; IC50 at 24 h [25]: > 100 µM; Activity [26]: Non-Toxic; Activity [27]: Non-Toxic; Activity [28]: Toxic; Activity [29]: 1.4%; Activity [30]: Non-Toxic; Activity [31]: 105; Activity [32]: 30.4%; viability at 15 µM [33]: 0.1%; Activity [34]: Non-Toxic
